Like-named read-outs stand apart in the source and are kept apart here. Bridge positions count the residues as written; N and C are the ends. Square brackets hold non-standard residues; d marks the D form. Peptide text beside a SMILES is read from it. Phe(4-Br) = N[C@@H](Cc1ccc(Br)cc1)C(=O)O; pGlu = O=C1CC[C@@H](C(=O)O)N1; Nle = CCCC[C@H](N)C(=O)O
Tests used:
human APJ (hAPJ) = target: T1, human APJ (hAPJ) (Homo sapiens, UniProt P35414); experiment: Competitive radioligand binding ([125I][Nle75,Tyr77][Pyr1]-Ape13) on membranes of HEK293 cells stably expressing human APJ
T1 construct: expressed in transfected cells; cell membranes
T1 sequence (P35414 1-380): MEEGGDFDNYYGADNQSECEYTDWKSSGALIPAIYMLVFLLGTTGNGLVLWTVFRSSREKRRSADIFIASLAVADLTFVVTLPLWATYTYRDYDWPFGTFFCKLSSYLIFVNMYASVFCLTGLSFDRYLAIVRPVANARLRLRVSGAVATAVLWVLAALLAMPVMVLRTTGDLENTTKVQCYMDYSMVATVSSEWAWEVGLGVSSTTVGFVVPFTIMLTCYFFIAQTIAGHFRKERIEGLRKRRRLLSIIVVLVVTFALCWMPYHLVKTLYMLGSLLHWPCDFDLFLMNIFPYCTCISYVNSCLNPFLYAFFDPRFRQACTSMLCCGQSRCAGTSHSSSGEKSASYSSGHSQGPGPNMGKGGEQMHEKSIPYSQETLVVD
Experimental: HEK293 cells stably expressing YFP-tagged human APJ were cultured in DMEM medium supplemented with 10% FBS, at 37° C. under a humid atmosphere maintaining 5% CO2. Antibiotic G418 (400 μg/mL) was added to maintain a selection pressure for APJ-expressing cells while penicillin/streptomycin (0.1%) were used to prevent bacterial contamination.
Binding experiments were performed on cell membranes of HEK293 stably expressing the YFP-tagged human APJ receptor. Cells were frozen at −80° C. for storage and quickly thawed right before the experiments (1 min at 37° C.). […] The precipitate (cell membranes) was suspended in binding buffer (50 mM Tris-HCl, 0.2% BSA, pH 7.4). Binding assays were run in 96-well plates. […] (820 Ci/mmol)^3 and test ligand with a range of concentrations from 10^−1 to 10^−11 M in a total volume of 200 μL for 1 h at room temperature.
The incubation mixtures were filtered through a glass fiber filter (Millipore, pre-absorbed of PEI 0.5% for 2 h at 4° C.) to remove unbound ligands, and the filter membranes were washed three times with 170 μL cold binding buffer (4° C.). The γ emission was measured using a 1470 Wizard γ-counter from PerkinElmer (Waltham, USA) (80% efficiency).

hAPJ receptor [1] = target: T2, hAPJ receptor (Homo sapiens, UniProt P35414); experiment: BRET-based β-arrestin2 recruitment assay in HEK293 cells; format: cell-based; details: for Emax: HEK293, read-out: ß-arr2 Emax
T2 construct: expressed in transfected cells; host or cells: HEK293, transient transfection with PEI
T2 sequence (P35414 1-380): T1 sequence (P35414 1-380)
Experimental: (§1) HEK293 cells were cultivated in high glucose DMEM medium having 10% FBS, 100 U/mL penicillin/streptomycin, 2 mM glutamine, and 20 mM HEPES at 37° C. in T175 flasks under humidified chamber at 5% CO2. […] Cells were then washed with phosphate-buffered saline (PBS) and 90 μL Hanks' balanced salt solution was added in each well. Then, cells were stimulated with analogs at concentrations ranging from 10^−5 M to 10^−11 M for 5 min at 37° C. (Gαi1) or for 30 min at room temperature (β-arrestin2). After stimulation, 5 μM of coelanterazine 400A was added to each well and the plate was read using the BRET^2 filter set of a GeniosPro plate reader (Tecan, Austria). The BRET ratio was determined as GFP10em/RlucIIem. Data were plotted and EC50 values were determined using GraphPad Prism 8. Each data point represents the mean±SEM of at least three different experiments each done in triplicate.

hAPJ receptor [2] = target: T2, hAPJ receptor; experiment: BRET-based Gαi1 activation assay in HEK293 cells; format: cell-based; details: for Emax: HEK293, Table V, read-out: Gαi1 Emax
Experimental: as §1

[3] = Rat plasma stability (half-life in vitro); format: in vitro ADME; details: male, Sprague-Dawley, rat, plasma
Experimental: Plasma was obtained from male Sprague-Dawley rats by collecting blood in heparin tube and centrifugating at 13,000 rpm to remove blood cells. The isolated plasma was stored at −80° C. and thawed right before the test. In 96-well plate, 6 μL of peptide solution at 1 mM was incubated with 27 μL of plasma at 37° C. in an oven equipped with orbital shaker. Tightly fitted caps were used to seal the wells to avoid water evaporation during incubation. […] A 96-well UPLC plate was put at the bottom to collect the samples. Both plates were centrifuged at 500 g for 10 min at 4° C. to accelerate the filtration. […] The quantity of remaining peptide was plotted into an exponential one-phase decay curve using GraphPad Prism 8 which allowed to calculate peptide half-life. The results were presented as mean±SEM of at least 3 independent experiments, each done in simplicate.
The percentage of remaining analogue was calculated by doing the ratio between AU of compound and AUC of internal standard. Half-lives were extrapolated from curves.

[4] = Table I, rat plasma, 37° C., up to 24 h
[5] = Table I, rat plasma, 37° C., up to 24 h, read-out: Half-life in vitro (converted)

## CCCC[C@H](NC(=O)[C@@H]1CCCN1C(=O)CNC(=O)[C@H](CCCCN)NC(=O)[C@@H]1CCCC[C@H](NC(=O)[C@H](CCCNC(=N)N)NC(=O)[C@@H]2CCC(=O)N2)C(=O)N[C@@H](CCCNC(=N)N)C(=O)N[C@@H](CC(C)C)C(=O)N[C@@H](CO)C(=O)N1)C(=O)N1CCC[C@H]1C(=O)N[C@@H](Cc1ccccc1)C(=O)O [Compound 13, Pyr-R-c*[X-R-L-S-X]c-K-G-P-Nle-P-F]
Human APJ (hAPJ); Table I, mean ± SEM, read-out: Ki binding
  Ki: 4.3 ± 0.3 nM
Human APJ (hAPJ); Table V, read-out: Binding Ki
  Ki: 4.3 ± 0.3 nM
hAPJ receptor [1]; Table V
  Emax: 75%
hAPJ receptor [1]; Table I, read-out: EC50 β-arr2
  EC50: 199 ± 65 nM
hAPJ receptor [1]; Table V, read-out: ß-arr2 EC50
  EC50: 199 ± 65 nM
hAPJ receptor [2]
  Emax: 102%

## CCCC[C@H](NC(=O)[C@@H]1CCCN1C(=O)CNC(=O)[C@H](CCCCN)NC(=O)[C@@H]1CC(=O)NC[C@H](NC(=O)[C@H](CCCNC(=N)N)NC(=O)[C@@H]2CCC(=O)N2)C(=O)N[C@@H](CCCNC(=N)N)C(=O)N[C@@H](CC(C)C)C(=O)N[C@@H](CO)C(=O)N1)C(=O)N1CCC[C@H]1C(=O)N[C@@H](Cc1ccccc1)C(=O)O [Compound 14, Pyr-R-c[Dap-R-L-S-Asp]c-K-G-P-Nle-P-F]
[3]; [4]
  half-life at 0.182 mM: 0.2 ± 0.1 h

## CCCC[C@H](NC(=O)[C@@H]1CCCN1C(=O)CNC(=O)[C@H](CCCCN)NC(=O)[C@@H]1CC(=O)NCCCC[C@H](NC(=O)[C@H](CCCNC(=N)N)NC(=O)[C@@H]2CCC(=O)N2)C(=O)N[C@@H](CCCNC(=N)N)C(=O)N[C@@H](CC(C)C)C(=O)N[C@@H](CO)C(=O)N1)C(=O)N1CCC[C@H]1C(=O)N[C@@H](Cc1ccccc1)C(=O)O [Compound 17, Pyr-R-c[Lys-R-L-S-Asp]c-K-G-P-Nle-P-F] ([pGlu]RKRLSDKGP[Nle]PF-OH; lactam 3-7)
[3]; [4]
  half-life at 0.182 mM: 0.1 h

## CCCC[C@H](NC(=O)[C@@H]1CCCN1C(=O)CNC(=O)[C@H](CCCCN)NC(=O)[C@@H]1CC=CCCC(=O)N[C@@H](CCCNC(=N)N)C(=O)N[C@@H](CC(C)C)C(=O)N[C@@H](CO)C(=O)N1)C(=O)N1CCC[C@H]1C(=O)N[C@@H](Cc1ccccc1)C(=O)O [Compound 22, Ø-c[X-R-L-S-X]c-K-G-P-Nle-P-F]
[3]; [5]
  half-life at […]: 2 ± 0.2 h

## CCCC[C@@H]1NC(=O)[C@@H](N)CC=CC[C@@H](C(=O)N[C@@H](CCCCN)C(=O)NCC(=O)N2CCC[C@H]2C(=O)N[C@@H](CCCC)C(=O)N2CCC[C@H]2C(=O)N[C@@H](Cc2ccccc2)C(=O)O)NC(=O)[C@H](CO)NC(=O)[C@H](CC(C)C)NC1=O [Compound 24, NH2-c[X-Nle-L-S-X]c-K-G-P-Nle-P-F]
[3]; [5]
  half-life at […]: 3.8 ± 0.5 h

## CCCC[C@H](NC(=O)[C@@H]1CCCN1C(=O)CNC(=O)[C@H](CCCCN)NC(=O)[C@@H]1Cc2cncn2CC=CC[C@H](N)C(=O)N[C@@H](CCCNC(=N)N)C(=O)N[C@@H](CC(C)C)C(=O)N[C@@H](CO)C(=O)N1)C(=O)N1CCC[C@H]1C(=O)N[C@@H](Cc1ccccc1)C(=O)O [Compound 25, NH2-c[X-R-L-S-Alh]c-K-G-P-Nle-P-F]
[3]; [4]
  half-life at 0.182 mM: 2 ± 0.3 h

## CC(C)C[C@@H]1NC(=O)[C@H](CCCNC(=N)N)NC(=O)[C@@H](N)CC=CC[C@@H](C(=O)N[C@@H](CCCCN)C(=O)NCC(=O)N2CCC[C@H]2C(=O)N[C@@H](Cc2cccc3ccccc23)C(=O)O)NC(=O)[C@H](CO)NC1=O [Compound 35, NH2-c[X-R-L-S-X]c-K-G-P-1Nal]
[3]; [4]
  half-life at 0.182 mM: 0.3 ± 0.1 h

## CC(C)C[C@@H]1NC(=O)[C@H](CCCNC(=N)N)NC(=O)[C@@H](N)CC=CC[C@@H](C(=O)N[C@@H](CCCCN)C(=O)NCC(=O)N2CCC[C@H]2C(=O)N[C@@H](Cc2ccc3ccccc3c2)C(=O)O)NC(=O)[C@H](CO)NC1=O [Compound 36, NH2-c[X-R-L-S-X]c-K-G-P-2Nal]
[3]; [4]
  half-life at 0.182 mM: 0.4 ± 0.1 h

## CC(C)C[C@@H]1NC(=O)[C@H](CCCNC(=N)N)NC(=O)[C@@H](N)CC=CC[C@@H](C(=O)N[C@@H](CCCCN)C(=O)NCC(=O)N2CCC[C@H]2C(=O)N[C@@H](Cc2ccc(OCc3ccccc3)cc2)C(=O)O)NC(=O)[C@H](CO)NC1=O [Compound 37, NH2-c[X-R-L-S-X]c-K-G-P-TyrOBn]
[3]; [4]
  half-life at 0.182 mM: 0.5 ± 0.1 h

## CC(C)C[C@@H]1NC(=O)[C@H](CCCNC(=N)N)NC(=O)[C@@H](N)CC=CC[C@@H](C(=O)N[C@@H](CCCCN)C(=O)NCC(=O)N2CCC[C@H]2C(=O)N[C@@H](Cc2ccc(OCc3ccccc3)c(C3CCCC3)c2)C(=O)O)NC(=O)[C@H](CO)NC1=O [Compound 38, NH2-c[X-R-L-S-X]c-K-G-P-cypTyr(OBn)]
[3]; [4]
  half-life at 0.182 mM: 11.3 ± 1 h

## CC(=O)N[C@@H](CCCCN)C(=O)N[C@@H](Cc1ccccc1)C(=O)N[C@@H](CCCNC(=N)N)C(=O)N[C@@H](CCCNC(=N)N)C(=O)N[C@@H](CCC(N)=O)C(=O)N[C@@H](CCCNC(=N)N)C(=O)N1CCC[C@H]1C(=O)N[C@@H](CCCNC(=N)N)C(=O)N[C@@H](CC(C)C)C(=O)N[C@H]1CCC(=O)NCCCC[C@@H](C(=O)N2CCC[C@H]2C(=O)N[C@@H](C)C(=O)N2CCC[C@H]2C(=O)N[C@@H](Cc2ccccc2)C(=O)O)NC(=O)[C@H](C)NC(=O)[C@H](Cc2c[nH]cn2)NC1=O [Compound 62, Ac-K-F-R-R-Q-R-P-R-L-[E-H-A-K]-P-A-P-F] (Ac-KFRRQRPRLEHAKPAPF-OH; lactam 10-13)
Human APJ (hAPJ); Ki binding
  Ki: 11 ± 7 nM
hAPJ receptor [1]
  EC50: 1260 nM

## CCCC[C@H](NC(=O)[C@@H]1CCC(=O)NCCCC[C@H](N)C(=O)N[C@@H](CCCNC(=N)N)C(=O)N[C@@H](CCCNC(=N)N)C(=O)N1)C(=O)N[C@H]1CSSC[C@@H](C(=O)N[C@@H](CCCNC(=N)N)C(=O)N[C@H](C(=O)N2CCC[C@H]2C(=O)N[C@@H](Cc2ccccc2)C(=O)N2CCC[C@H]2C(=O)O)C(C)C)NC(=O)[C@H](Cc2c[nH]cn2)NC(=O)[C@H](CC(C)C)NC1=O [Compound 79, c[K-R-R-E]-Nle-c[C-L-H-C]-R-V-P-F-P] (H-KRRE[Nle]CLHCRVPFP-OH; lactam 1-4; disulfide 6-9)
[3]; Table III, rat plasma, read-out: Half-life in vitro (converted)
  half-life at […]: > 17 h
hAPJ receptor [1]
  EC50: 51 ± 3 nM
hAPJ receptor [2]
  EC50: 4 ± 0.8 nM

## CC(C)C[C@@H]1NC(=O)[C@@H]2CCCN2C(=O)[C@@H](NC(=O)[C@H](CO)NC(=O)[C@H](CCCNC(=N)N)NC(=O)[C@H](CCCNC(=N)N)NC(=O)[C@@H]2CCC(=O)N2)CCC(=O)NCCCC[C@@H](C(=O)N[C@@H](CCCNC(=N)N)C(=O)N[C@H](C(=O)N2CCC[C@H]2C(=O)N[C@@H](Cc2ccc(Br)cc2)C(=O)N2CCC[C@H]2C(=O)O)C(C)C)NC(=O)[C@H](Cc2c[nH]cn2)NC1=O [Compound 92, Pyr-R-R-S-[E-P-L-H-K]-R-V-P-4BrF-P] ([pGlu]RRSEPLHKRVP[Phe(4-Br)]P-OH; lactam 5-9)
Human APJ (hAPJ); Binding Ki
  Ki: 15 ± 2 nM
hAPJ receptor [1]
  EC50: 439 ± 91 nM
hAPJ receptor [2]
  EC50: 16 ± 3 nM

## CCCC[C@H](NC(=O)[C@@H]1CCCN1C(=O)CNC(=O)[C@H](CCCCN)NC(=O)[C@@H]1CC=CC[C@H](NC(=O)[C@H](CCCNC(=N)N)NC(=O)[C@@H]2CCC(=O)N2)C(=O)N[C@@H](CCCNC(=N)N)C(=O)N[C@@H](CC(C)C)C(=O)N[C@@H](CO)C(=O)N1)C(=O)N1CCC[C@H]1C(=O)N[C@@H](Cc1ccccc1)C(=O)O [Compound 97, Pyr-R-c[X-R-L-S-X]c-K-G-P-Nle-P-F, reference compound]
[3]; t1/2 in rat plasma
  half-life at […]: 2 to 5 h
hAPJ receptor [1]; Table V
  Emax: 98%
hAPJ receptor [2]
  Emax: 101%

Reference: patent publication US20240343761A1, “APELINERGIC MACROCYCLES AND USES THEREOF” (priority 2021, published 2024)
